Consider 1 compound from US10975049B2, “Nicotinyl alcohol ether derivative, preparation method therefor, and pharmaceutical composition and uses thereof” (Institute of Materia Medica, Chinese Academy of Medical …, priority 2016, dated 2021).

For orientation: Kd means the constant that tells how readily two partners part at equilibrium. The term IC50 denotes the concentration at which inhibition is half-maximal.

Series [1] concerns the target T1, PD-L1 protein (Homo sapiens (Human), UniProt Q9NZQ7). Nature of the series: Interaction with PD-L1 protein tested by Biacore (SPR). The class given is binding. The source says: Surface plasmon is a kind of electromagnetic wave on the surface of metal, produced by the interaction of photon and electron in free vibration. Surface plasmon resonance (SPR) is an optical phenomenon that occurs on the surface of two kinds of media, which can be induced by photon or electron. The phenomenon of total reflection of light from light dense medium into light scattering medium will form evanescent wave into light scattering medium. When the total reflected evanescent wave meets the plasma wave on the metal surface, the resonance may occur, and the energy of reflected light decreases and the resonance peak appears on the reflected light energy spectrum. This resonance is called the surface plasmon resonance. The incident angle of the surface plasmon resonance is called the SPR angle. The SPR biosensor provides a sensitive, real-time, non-label detection technique for monitoring the interaction of molecules. The sensor detects the change of the SPR angle, and SPR is also related to the refractive index of the metal surface. When an analyte is bond on the surface of the chip, it leads to the change of the refractive index of the chip surface, which leads to the change of the SPR angle. […] In the interaction analysis, the change of SPR angle is recorded on the sensor map in real time. […]

Series [2] concerns high metastatic melanoma B16F10. Nature of the series: Lung metastasis model of high metastatic melanoma B16F10. The class given is in vivo, C57BL/6 mice. The note with it: result in words. Here is the method: The method in B16F10 lung metastasis model was as follows. The cultured B16F10 tumor cells were digested and centrifuged and washed for two times with sterile physiological saline and then counted. And the cell concentration was adjusted to 2.5×10^6/ml by physiological saline. 0.2 ml of cells were injected into the C57BL/6 mice through the tail vein, and the tumor cells will gather in the lung of the mice. After inoculation, the animals were randomly divided into two groups in next day. Each group had 6-7 mice. After weighing, the animals were dosed once each day. After 3 weeks, the mice were weighed and killed, the lung tissue was collected and weighed, and the number of lung tumors was counted after being fixed by the Bouin's Fluid. Finally, the tumor growth inhibition rate was calculated, and the tumor growth inhibition rate was used to evaluate the level of anti-tumor effect.
In the study of the mechanism of the above models, the method of flow cytometry was adopted in measuring the total cell proportion of T cells of various types. The specific steps were as follows. The samples were treated at first. For blood tissue, the orbital blood was taken. The red cell lysate was used to remove the red blood cells, and then the PBS buffer was used for wash. After being washed, the cells were collected. For the tumor and spleen, the tissues were grinded with a homogenizer, and then diluted with PBS buffer, then filtered by 300 meshes of screen. After the number of cells was counted for each sample, 1×10^6 cells were added into EP tube and stained for flow antibody. After incubation for 1 h on ice, each sample was washed 2 times with PBS buffer. The cell population was analyzed by VERSE flow instrument of BD Company. The total number of cells in tumor tissue was 1×10^5 and the total number of cells in blood and spleen tissues was 1×10^4. The ratio of T cells to total number of cells was analyzed after flow cytometry.

Series [3] deals with T1, PD-L1 protein. Nature of the series: Relieving the inhibition of IFNγ by ligand PD-L1 in human PBMC. The class given is cell-based. The conditions noted are these: 72 h. Here is the method: The expression level of IFNγ can reflect the proliferative activity of T lymphocytes. Using the extracted human PBMC (peripheral blood mononuclear cell), on the basis that T lymphocyte could be activated by the anti-CD3/anti-CD28 antibody, the ligand PD-L1 was added to the inhibit T lymphocyte, the example compounds' capacity of relieving the inhibition by the PD-L1 was investigated.
The specific procedure is as follows. DAKEWE human lymphocyte separation solution (DKW-KLSH-0100) was used to extract PBMC from human whole blood, and PBMC was inoculated into 96 well plate, with 3×10^5 cells per well. […] After 72 h, the expression level of IFNγ in the supernatant was detected by Cisbio IFNγ test kit.

For series [4], the system named is mouse colon cancer MC38. Nature of the series: Subcutaneous xenograft model of mouse colon cancer MC38. Type of series: in vivo, C57BL/6 or Bablc mice. Here is the method:
The method in subcutaneous xenograft tumor was as follows. The cultured specific tumor cells were digested and collected by centrifugation, and washed with sterile physiological saline for two times and then counted. The cell concentration was adjusted to 5×10^6/ml by physiological saline, and 0.2 ml of cell suspension was inoculated to the right armpit of C57BL/6 or Bablc mice. After inoculation, the animals were randomly divided into two groups in next day. Each group had 6-7 mice. After weighing, the animals were dosed once each day to monitor tumor size. When the tumor size reached to a certain size, the mice was weighed and blood was collected from mice orbit and then the mice were killed by removing the neck. The tumor tissue, thymus tissue and spleen tissue were collected and weighed respectively. Finally, the tumor growth inhibition rate was calculated, and the tumor growth inhibition rate was used to evaluate the level of anti-tumor effect.

T1 sequence (Q9NZQ7 19-290): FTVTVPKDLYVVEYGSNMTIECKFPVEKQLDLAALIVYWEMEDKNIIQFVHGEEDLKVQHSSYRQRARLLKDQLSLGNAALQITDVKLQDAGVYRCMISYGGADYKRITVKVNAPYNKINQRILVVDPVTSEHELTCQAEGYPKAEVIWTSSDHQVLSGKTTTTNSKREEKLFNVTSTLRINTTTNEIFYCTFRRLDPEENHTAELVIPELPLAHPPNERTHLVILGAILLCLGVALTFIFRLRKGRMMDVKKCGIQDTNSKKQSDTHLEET

For `O=C(O)[C@H](CO)NCc1cc(Cl)c(OCc2cccc(-c3ccccc3)c2Br)cc1OCc1cccnc1` [Example 4, (S)—N-(4-(2-bromo-3-phenylbenzyloxy)-5-chloro-2-(pyridin-3-yl-methyleneoxy)benzyl) serine], in series [1] (PBS-P+, pH7.4, 0.01% DMSO, NTA chip), the “kd” value worked out at 2.815e-05 s⁻¹. Besides, the Kd in series [1] (unit inferred, read-out: affinity kD value) is 0.0203 nM. Also, the “percentage of lymphocyte in mouse blood” value in series [2] was “increase”. The compound further yielded an IC50 in series [3] of 0.18 nM. For the same compound, in series [3] (at 10 nM), the “relief of the inhibition of PD-L1 to expression level of IFNγ” value is recorded as “partially relieved”. The “TGI % (tumor growth inhibition rate)” value in series [4] (2.5 mg/kg) is listed as 102.3%; in series [4] (5 mg/kg) it was 12.7%; in series [4] (10 mg/kg), 32.7%; in series [4] (20 mg/kg) it was 41.2%. Moreover, the “Tumor weight(g) Mean ± SD” value is recorded as 3.25 ± 0.61 g in series [4] (2.5 mg/kg), 2.78 ± 0.44 g in series [4] (5 mg/kg), 2.14 ± 0.78 g in series [4] (10 mg/kg) and 1.87 ± 0.90 g in series [4] (20 mg/kg). The “Body weight (g) Mean ± SD Begin” value in series [4] (2.5 mg/kg, begin) is listed as 18.0 ± 0.4 g. The “Body weight (g) Mean ± SD End” value in series [4] (2.5 mg/kg) is listed as 21.9 ± 0.7 g; in series [4] (5 mg/kg) it was 22.8 ± 0.6 g; in series [4] (10 mg/kg), 21.5 ± 0.8 g; in series [4] (20 mg/kg), 20.9 ± 1.1 g.
